We go through three compounds from patent publication US20210386779A1, “COMPOSITIONS AND METHODS FOR DIETARY ENHANCEMENT OF IMMUNE SYSTEM FUNCTION” (priority 2020, published 2021).

Data set [1] in a line: Supplement-specific monitoring for side effects and toxicity over the study period. The note with it: in vivo, po. Further details: species or system human.
Excerpt: Monitoring tor such side effects is expected to continue over and beyond the period of quina bark extract administration.
It appears to be appropriate to continue monitoring for oncological side effects over and beyond the period of quercetin administration.
Data set [2] addresses SARS-CoV-2 viral S-spike binding to cells (UniProt P0DTC2+Q9BYF1). The note with it: supercomputer docking; cited from earlier work.
For data set [3], the system named is COVID-19 and other flu-like illnesses (SARS-CoV-2). Description: 20-week clinical study: test group taking the core formulations monitored for symptoms of flu-like illness, with focus on COVID-19. It is filed as in vivo, human. The note with it: for prophylactic efficacy against COVID-19 and other flu-like illnesses (conclusion in words): 20-week study; for symptomatic control group subjects (of 12) who had maintained supplementation with this component alone, without other core formulation components: 20 weeks, vitamin C 500-1000 mg daily, vitamin D3 1000-2000 IU daily. From the text:
From late February/early March 2020, we recommended to patients seen in-office (and to numerous telemedicine patients) and to our staff members to follow a regimen of at least the core formulations. Of in-office patients and staff, 54 subjects started with the study's voluntary OTC regimen and, thereby, constituted the study test group (reduced to 53 subjects after the second study week by a voluntary withdrawal); while 60 declined the regimen—for reasons, when given, involving implementation's complexity and/or effort; and/or indicating barriers to implementation stemming from educational and/or socio-economic background—and constituted the study control group.
Over the study period, we monitored subjects for symptoms of flu-like illness, with an active focus on COVID-19. At the outset of the pandemic, our practice's access to COVID-19 testing was quite limited. At that point, we identified subjects as confirmed COVID-19 cases or, at least, as likely COVID-19 cases upon their earliest presentation of clinical symptoms of COVID-19; or upon their being test-confirmed as COVID cases as documented in locales and practices where testing was available. Asymptomatic/pre-symptomatic subjects—with special note taken of documented, self-reported or likely exposure to diagnosed or suspected COVID-19 cases—as well as subjects presenting symptoms of unspecified flu-like illnesses, were followed for subsequent development of COVID-19 symptoms. As testing became more available, the state/regional protocols were such that we would receive notification of individual ones among our subjects having tested positive, the testing generally conducted by a subject's primary care provider, and the notifications then sent by Ohio health agencies to all the infected patient's physicians.
One dose daily of the full core formulation regimen, as per Table 2.
Over the study period of 20+ weeks, we monitored 113 subjects (104 in-office patients and 9 staff members) for clinical symptoms of flu-like illnesses, with subsequent differential diagnosis (and, when available, with test-confirmation) of each symptomatic subject to distinguish COVID-19 from non-COVID-19 flu-like illness. We also maintained data of reported and/or observed subject exposures to clinical and/or test-confirmed cases of COVID-19.
The OTC regimen undertaken by test group subjects included the core formulations of zinc, zinc ionophores, vitamins and l-lysine, as well as at least some of the methods. […]

SMILES strings stand for the structures.

With `O=c1c(O)c(-c2ccc(O)c(O)c2)oc2cc(O)cc(O)c12` [quercetin], the “complications, side effects or toxicity observed over the study period” value in data set [1] is given as “received no reports nor found any clinical signs of quercetin toxicity”. Also, the “rank for inhibition of SARS-CoV-2 viral S-spike binding to cells among FDA-approved compounds” value in data set [2] was “fifth out of twenty top performers”.
Turning to `O=C1O[C@H]([C@@H](O)CO)C(O)=C1O` [vitamin C], in data set [3], the “prophylactic efficacy against COVID-19 and other flu-like illnesses (conclusion in words)” value is on record as “relative lack of anti-flu/anti-COVID-19 prophylactic efficacy”; the “symptomatic control group subjects (of 12) who had maintained supplementation with this component alone, without other core formulation components” value was “at least four”.
The like results for `C=C1CC[C@H](O)C/C1=C/C=C1\CCC[C@]2(C)[C@@H]([C@H](C)CCCC(C)C)CC[C@@H]12` [vitamin D3] were, in that order, “relative lack of anti-flu/anti-COVID-19 prophylactic efficacy” and “at least three”.
